Results taken from ChEMBL document CHEMBL4819049, “Estrogenic activity of ethyl gallate and its potential use in hormone replacement therapy” (Bioorg Med Chem Lett, 2021).
Active and inactive are the calls of the source. The rule behind the calls is not given here.

Tests used:
Rattus norvegicus [1] = assay: Estrogenic activity in immature rat model assessed as uterine weight at 10 ug/kg, sc (reference value: 37.67 mg); format: functional; conditions: dose 10 µg/kg
MCF7 [2] = assay: Cytotoxicity against human ER-positive MCF7 cells assessed as increase in cell proliferation at 12.5 to 100 uM incubated for 24 hrs; format: cell-based; conditions: mcf7, 24 h, dose 12.5-100 µM
MCF7 [3] = assay: Estrogenic activity at human ER-positive MCF7 cells assessed as increase in cell proliferation at 50 uM incubated for 144 hrs by Soto's E-screen assay; format: functional, cell-based
MCF7 [4] = assay: Cytotoxicity against human ER-positive MCF7 cells assessed as reduction in cell proliferation at 50 uM incubated for 144 hrs by Soto's E-screen assay; format: cell-based; conditions: mcf7, 144 h
MCF7 [5] = assay: Estrogenic activity at human ER-positive MCF7 cells assessed as increase in cell proliferation at 12.5 to 100 uM incubated for 144 hrs in presence of ER antagonist, ICI182780 by Soto's E-screen assay; format: functional, cell-based; conditions: dose 12.5-100 µM
[6] = target: T1, Estrogen receptor (Homo sapiens) (UniProt P03372); assay: Agonist activity at ER in human MCF7 cells assessed as increase in receptor gene activity at 12.5 to 100 uM in presence of ER antagonist, ICI182780 by luciferase reporter gene assay; format: cell-based; conditions: dose 12.5-100 µM
T1 sequence (whole entry): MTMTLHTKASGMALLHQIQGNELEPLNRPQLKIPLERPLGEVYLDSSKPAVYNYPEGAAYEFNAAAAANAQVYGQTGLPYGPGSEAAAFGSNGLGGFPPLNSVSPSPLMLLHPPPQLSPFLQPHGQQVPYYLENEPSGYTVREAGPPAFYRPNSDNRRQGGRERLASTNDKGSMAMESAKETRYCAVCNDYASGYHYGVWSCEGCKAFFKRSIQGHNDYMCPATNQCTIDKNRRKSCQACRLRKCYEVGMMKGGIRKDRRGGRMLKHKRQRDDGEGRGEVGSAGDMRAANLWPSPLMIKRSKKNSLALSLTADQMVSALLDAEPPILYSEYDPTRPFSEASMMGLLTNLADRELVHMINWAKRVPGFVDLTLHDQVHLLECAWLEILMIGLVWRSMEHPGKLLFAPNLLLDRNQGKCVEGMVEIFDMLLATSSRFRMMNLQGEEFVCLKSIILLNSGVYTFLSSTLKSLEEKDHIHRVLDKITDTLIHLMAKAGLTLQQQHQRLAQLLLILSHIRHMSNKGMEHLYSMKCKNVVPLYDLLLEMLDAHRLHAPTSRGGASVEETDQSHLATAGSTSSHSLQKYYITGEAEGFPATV

MCF7 [7] = assay: Estrogenic activity at human ER-positive MCF7 cells assessed as cell proliferation at 50 uM incubated for 144 hrs by Soto's E-screen assay relative to control; format: functional; conditions: read-out: Activity
[8] = target: T1, Estrogen receptor (Homo sapiens); assay: Agonist activity at ER in human MCF7 cells assessed as increase in receptor gene activity by luciferase reporter gene assay; format: cell-based; conditions: filed as agonist, dose 12.5-100 µM
[9] = target: T1, Estrogen receptor (Homo sapiens); assay: Agonist activity at ER in human MCF7 cells assessed as increase in receptor gene activity at 12.5 to 100 uM in presence of ER agonist, 17-beta-estradiol by luciferase reporter gene assay relative to control; format: cell-based; conditions: dose 12.5-100 µM
MCF7 [10] = assay: Estrogenic activity at human ER-positive MCF7 cells assessed as increase in cell proliferation incubated for 144 hrs by Soto's E-screen assay; format: functional, cell-based; conditions: dose 25-100 µM
MCF7 [11] = assay: Estrogenic activity at human ER-positive MCF7 cells assessed as increase in cell proliferation at 50 uM incubated for 144 hrs in presence of ER antagonist, ICI182780 by Soto's E-screen assay; format: functional, cell-based
MCF7 [12] = assay: Cytotoxicity against human ER-positive MCF7 cells assessed as decrease in cell proliferation at 12.5 to 100 uM incubated for 24 hrs; format: functional, cell-based; conditions: for IC50: MCF7, 24 h; for inhibition: dose 12.5-100 µM
Rattus norvegicus [13] = assay: Estrogenic activity in immature rat model assessed as uterine weight at 100 mg/kg, sc administered once daily for 3 days (reference value: 37.67 mg); format: functional; conditions: dose 100 mg/kg/day; time 3 day
MCF7 [14] = assay: Cytotoxicity against human ER-positive MCF7 cells assessed as cell proliferation at 50 uM incubated for 144 hrs by Soto's E-screen assay relative to control; format: cell-based; conditions: mcf7, 144 h

SMILES	Activity (MCF7 [2])	Activity (MCF7 [3])	Activity (MCF7 [4])	further results
C[C@]12CC[C@@H]3c4ccc(O)cc4CC[C@H]3[C@@H]1CC[C@@H]2O [ESTRADIOL]	–	–	–	Activity (Rattus norvegicus [1]): 51 mg
C[C@@]12C[C@@]3(O)O[C@@H](O1)[C@]1(COC(=O)c4ccccc4)[C@H]3C[C@@]12O[C@@H]1O[C@H](COC(=O)c2ccccc2)[C@@H](O)[C@H](O)[C@H]1O	Non-Toxic	inactive	Non-Toxic	–
C[C@@]12C[C@@]3(O)O[C@@H](O1)[C@]1(COC(=O)c4ccccc4)[C@H]3C[C@@]12O[C@@H]1O[C@H](CO)[C@@H](O)[C@H](O)[C@H]1O [PAEONIFLORIN]	Non-Toxic	inactive	Non-Toxic	–
C[C@@]12C[C@@]3(O)O[C@@H](O1)[C@]1(COC(=O)c4ccc(O)cc4)[C@H]3C[C@@]12O[C@@H]1O[C@H](CO)[C@@H](O)[C@H](O)[C@H]1O	Non-Toxic	inactive	Non-Toxic	–
COc1ccc(C(C)=O)c(O)c1 [PAEONOL]	Non-Toxic	inactive	Non-Toxic	–
CCOC(=O)c1cc(O)c(O)c(O)c1 [ETHYLGALLATE]	Non-Toxic	–	–	Activity (MCF7 [5]): inactive; Activity [6]: inactive; growth at 50 µM (MCF7 [7]): 131%; Activity [8]: Dose-Dependent Effect; fold change (FC) [9]: > 2; Activity (MCF7 [10]): Dose-Dependent Effect; Activity (MCF7 [11]): inactive; IC50 (MCF7 [12]): 62.5 µM; inhibition (MCF7 [12]): Dose-Dependent Effect; Activity (Rattus norvegicus [13]): 43.67 mg
O=C(O)c1cc(O)c(O)c(O)c1 [GALLIC ACID]	Non-Toxic	–	–	Activity (MCF7 [14]): 15.8%; IC50 (MCF7 [12]): 17.4 µM; inhibition (MCF7 [12]): Dose-Dependent Effect
O=C(O)c1ccccc1 [BENZOIC ACID]	Non-Toxic	inactive	Non-Toxic	–
